In patent US8198317B2, “Methylenedioxy phenolic compounds and their use to treat disease” (The Ohio State University Research Foundation, priority 2008, dated 2012):

Tested on: New Zealand White rabbits
Experiment: MRI assessment of atherosclerosis in balloon denuded NZW rabbits
Format: in vivo, rabbit
Description: Animal Model: 15 male New Zealand White rabbits (Charles River, Mass.) were fed with high fat diet (HFD) (Harlan Teklad rabbit diet with 0.5% cholesterol, TD 87251). After 4 weeks of high fat diet, rabbits were randomized into three different treatment groups, normal control (n=5), lipoic acid (100 mg/kg/day) (n=5), INV 70-65 (100 mg/kg/day) (n=5). These drugs were administered to the animals via their chow by mixing the drugs with the high fat diet. A fixed amount of chow and drugs admixed in the chow were fed to all animals every day after carefully calculating food intake in each rabbit. Drugs were dissolved in 100% ethanol and sprayed onto the diet and kept under vacuum to let ethanol evaporate overnight. Two (2) weeks after drug or control admixed HFD, all rabbits underwent aortic balloon denudation surgeries followed by 12 weeks of continued administration of drug or controls admixed with HFD. FIG. 29 provides an outline of the experimental design.
MRI experiments were conducted at two time points: 1 week and 12 weeks after the balloon denudation procedure (FIG. 29). […] MR images were analyzed using a Siemens Leonardo Workstation (Siemens Healthcare Inc. Germany).
To assess the different rates of atherosclerosis plaque progression for each rabbit group, the aortic wall was identified in the pre-contrast images at both MRI time points. […] To account for the variable number of slices, for each rabbit a normalized aortic wall volume was calculated.
To assess plaque neovasculature progression in the different treatment groups, only the 12 weeks post balloon denudation MR images were used. […] The signal to noise ratio (SNR) for each slice was calculated as the mean signal obtained from the vessel wall divided by the standard deviation of the noise from a region outside the body. A ratio of the SNR enhancement for each rabbit was obtained by dividing the post and pre contrast calculated SNRs.

O=C(CCCCC1CCSS1)Oc1ccc2c(c1)OCO2 (centres unmarked) [INV-7065, 3,4-Methylenedioxy phenyl lipoate]
gadolinium enhancement of the aorta (compared to controls and lipoic acid treatment): reduction
plaque burden by MRI (high fat diet, 100 mg/kg/day, 12 weeks): marked attenuation
